Test results taken from BindingDB's records for patent US10071965 (The State University of New York, 2018).

Target: T1, Enoyl-[acyl-carrier-protein] reductase [NADPH] FabI (Staphylococcus aureus (strain MRSA252), UniProt Q6GI75)
T1 sequence (Q6GI75 whole entry): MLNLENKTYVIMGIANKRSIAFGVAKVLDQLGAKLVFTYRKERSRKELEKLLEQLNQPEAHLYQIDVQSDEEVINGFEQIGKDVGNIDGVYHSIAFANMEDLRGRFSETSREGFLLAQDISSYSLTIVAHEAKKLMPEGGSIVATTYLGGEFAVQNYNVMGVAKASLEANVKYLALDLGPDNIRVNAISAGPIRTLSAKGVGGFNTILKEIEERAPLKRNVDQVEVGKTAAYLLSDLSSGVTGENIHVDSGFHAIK
Assay: Tight-binding assay
Settings: pH 7.5

Cc1ccc(Oc2ccccc2)c(O)c1 [US10071965, Compound PT53] gave a Ki of 494 nM.
